Tests used:
Type in all cases: cell-based, Pseudomonas aeruginosa
[1] = test system: nonswarming P. aeruginosa mutant rhlA; experiment: Swarming motility of nonswarming rhlA mutant on soft agar (reactivation / agonist assay); conditions: for Swarming motility of rhlA mutant: 85 μM in soft agar (0.5%); for Reactivation of swarming motility of rhlA mutant: concentration not given; for Concentration of activity reversal for swarming promotion of rhlA mutant (transition concentration): soft agar
Excerpt: Using nonswarming mutant to screen for swarming agonists and wild type P. aeruginosa for swarming antagonists. The transposon mutant, rhlA (genotype, rhlA-E08:ISphoA/hah)39 of P. aeruginosa (PAO1), that impairs the gene that is responsible for synthesizing rhamnolipids is completely incapable of a swarming motility. […] Based on this inference, a rhlA mutant was used in a swarming experiment to screen the saccharide-hydrocarbons for agonists that can reactivate the swarming motility of rhlA.
(§1) Swarm agar plates were based on M8 medium supplemented with 0.2% glucose, 0.5% casamino acid, 1 mM MgSO4 and […]. 17 For each set of experiment all the swarm plates were poured from same batch of agar and allowed to dry for 1 h before inoculation of bacteria. Bacterial culture (3 μl) (wild type PAO1 or rhlA mutant) with OD600 between […] was inoculated on the solidified agar plates. Swarm agar plates were incubated at 37° C. for 12 h and then incubated for additional 12 h at room temp. Chronological images of swarm plates were taken using a camera. To measure swarming area, sizes of the petridish in all swarming images were adjusted to a pre-assigned diameter and images were printed on copying paper (Xerox-business 4200). Weight of a 1 cm^2 copy paper square was roughly ˜8.0 mg. swarming images on the copy paper were cut and weighed, the swarm area was calculated by dividing the weight of image by weight of 1 cm^2 square (8 mg).
(§2) Swarm agar plates were made using M8 medium supplemented with 0.2% glucose, 0.5% casamino acid, 1 mM MgSO4 and solidified with 0.5% Bacto agar. 24 Bacterial culture with OD600 between 0.4 to 0.6 was inoculated as 3 μl aliquots. Swarm agar plates were incubated at 37° C. for 12 h and then incubated for additional 12 h at rt. For each set of experiment all the swarm plates were poured from same batch of agar and allowed to dry for 1 h before inoculation of bacteria.

[2] = test system: wild type PAO1; experiment: Swarming motility of wild type PAO1 on soft agar (antagonist assay); conditions: for Swarming motility of wild type PAO1: 85 μM in soft agar; for Effect on PAO1 swarming: concentration not given; for Concentration of activity reversal for swarming inhibition of PAO1 (transition concentration): soft agar
Description: In contrast, the wild type P. aeruginosa produces the rhamnolipids and is capable of swarming on soft agar gel (˜0.5% agar). […] We note that saccharide hydrocarbons may also promote the swarming motility, but such promotions are less unambiguous than the inhibition for wild type PAO1. Such promotion will be unambiguous in the agonist assay using the nonswarming mutant rhlA.
as §1, §2

[3] = test system: PAO1 biofilm; experiment: Crystal violet based static biofilm inhibition assay, DSHs in LB media (Examples 2 and 4); conditions: for Inhibition of PAO1 biofilm formation (surface attached): 160 μM, 24 h, LB media, 160 µM; for Anti-biofilm activity (biofilm inhibition): concentration not given
Description: The ability of DSHs was tested to inhibit Pseudomonas aeruginosa adhesion, biofilm and to disperse pre-formed biofilm. To quantify the amount of PAO1/EGFP attached on the surface of micro titer plates with or without the synthesized DSHs, fluorescence emitted by green fluorescent proteins (GFP) was quantified (see supporting info for details). Crystal violet (CV) based static biofilm assay (see supporting info) was used to screen the anti-biofilm potencies of all synthesized agents. Both surface attached (SA) (FIG. 17) and total (SA+air-liquid interface) biofilm of P. aeruginosa was quantified. […] CV assays were also used to quantify the amount of P. aeruginosa biofilm remaining after dispersion experiments (FIG. 19). Initially, all agents were screen for anti-biofilm activities (both inhibition and dispersion) at 160 μM. […] All reported biofilm inhibition results are an average of 4 identical wells.
The effect that DSHs have on the adhesion of PAO1-EGFP on polystyrene surface (microtiter plate) was also examined. PAO1-EGFP is a P. aeruginosa strain that constitutively expresses green fluorescent protein. In the adhesion assays, PAO1-EGFP was grown in microtiter plate for 24-hours in LB-media with (160 μM) or without DSHs. After 24-hours, the fluorescent signal obtained from surface adhered PAO1-EGFP was measured. Percent reduction in fluorescence was calculated by comparing fluorescent signal from PAO1-EGFP grown in LB-media with the signal from wells that had DSHs (FIG. 29A). To study the effect of DSHs on biofilm formation, Pseudomonas aeruginosa (PAO1) was grown in LB-media with (160 μM) or without DSHs at 37° C. under static conditions within wells of microtiter plates. After 24 hours, the surface attached biofilms adhering to the bottom of the wells were stained with crystal-violet dye and the biofilm was quantified by measuring absorbance at 600 nm (OD600). […] Similar to inhibition, the surface attached biofilm after dispersion with DSHs was quantified with crystal-violet staining and absorbance measurement at 600 nm, except that for dispersion, biofilm was first grown for 1 day in just LB-media without any DSHs after which DSHs were added and plates were incubated for additional 24 hours followed by quantification (FIG. 29B).
Crystal violet (CV) based-biofilm inhibition assay. Inhibitory effect of all synthesized disaccharide hydrocarbons on biofilm formation of Pseudomonas aeruginosa (wild type PAO1) was determined by static biofilm inhibition assay using crystal violet staining. Overnight culture of PAO1 were sub cultured in LB media to OD600 of 0.01 and further the OD600 was allowed to reach ˜0.1. The bacterial sub-culture (200 μL) was then added into the wells of a microtiter plate. Predetermined concentrations of DSHs were added to respective wells containing sub culture by pipetting out fixed volume of sterile aqueous stock solutions (except DβL (7), SPOT, (15) and 2-ODαC (17), which were introduced as stocks prepared in H2O […] and EtOH (90:10) solutions). The microtiter plates were then wrapped in GLAD Press n′ Seal® (saran wrap) and further incubated under stationary conditions for 24 h at 37° C. After 24 h incubation, the culture media was discarded by pipetting carefully (without disrupting biofilm), the plate was then washed once with sterile water (200 μL) and allowed to dry at 37° C. for ˜30 mins. Microtiter plates were then stained with 0.1% aqueous solution of crystal violet (CV) (200 μL) at rt for ˜30 mins. Following this, the CV stain was removed and plate was again washed with sterile water (200 μL). Resultant CV stain in the well was then solubilized by adding 100 μL of 30% AcOH solution (in water) and mixing gently by pipetting.

Molecule | Swarming motility of rhlA mutant ([1]; 24 h) | Swarming motility of wild type PAO1 ([2]; 24 h) | Effect on PAO1 swarming [2] | Anti-biofilm activity (biofilm inhibition) [3] | other results
CCCCCCCCCCC(CO[C@@H]1O[C@H](CO)[C@@H](O[C@H]2O[C@H](CO)[C@@H](O)[C@H](O)[C@H]2O)[C@H](O)[C@H]1O)Cc1cc(C)cc(C)c1 (stereo partly drawn) [3,5-DMBDβM, 3,5-dimethyl benzyl dodecyl β-maltoside] | long, straight and well-defined tendrils | – | – | – | –
CCCCCCCCCCC(CO[C@@H]1O[C@H](CO)[C@@H](O[C@H]2O[C@H](CO)[C@@H](O)[C@H](O)[C@H]2O)[C@H](O)[C@H]1O)Cc1ccc(C)cc1 (stereo partly drawn) [4-MBDβM, 4-methyl benzyl dodecyl β-maltoside] | long, straight and well-defined tendrils | – | – | – | –
CCCCCCCCC(CO[C@@H]1O[C@H](CO)[C@@H](O[C@H]2O[C@H](CO)[C@@H](O)[C@H](O)[C@H]2O)[C@H](O)[C@H]1O)Cc1ccc(C(C)(C)C)cc1 (stereo partly drawn) [4-tBuBDeβM, 4-tertiary butyl benzyl decyl β-maltoside] | swarming motility with without well-defined tendrils | – | – | – | –
CCCCCCCCCCO[C@@H]1O[C@H](CO)[C@@H](O[C@H]2O[C@H](CO)[C@@H](O)[C@H](O)[C@H]2O)[C@H](O)[C@H]1O [DeβM, decyl β-matoside] | did not exhibit any significant activation of swarming | – | – | – | –
CCCCCCCCCCCCO[C@H]1O[C@H](CO)[C@@H](O[C@@H]2O[C@H](CO)[C@@H](O)[C@H](O)[C@H]2O)[C@H](O)[C@H]1O [DαC (6), dodecyl-α-cellobioside] | no apparent reactivation of rhlA swarming | causing significant amount of tendril formation | induced tendril formation in the swarming pattern of PAO1 | – | –
CCCCCCCCCCCCO[C@@H]1O[C@H](CO)[C@@H](O)[C@H](O)[C@H]1O [DβG (8), dodecyl-β-glucoside] | no apparent effect on rhlA | inhibited the swarming motility of wild type PAO1 | – | weak anti-biofilm activity | Reactivation of swarming motility of rhlA mutant [1]: activated the swarming motility of rhlA mutant; Concentration of activity reversal for swarming promotion of rhlA mutant (transition concentration) [1]: ~35 to 50 µM; Concentration of activity reversal for swarming promotion of rhlA mutant (transition concentration) ([1]; listed as 8): 35 µM; Concentration of activity reversal for swarming inhibition of PAO1 (transition concentration) [2]: ~50 to 60 µM; Concentration of activity reversal for swarming inhibition of PAO1 (transition concentration) ([2]; listed as 8): 35 to 50 µM; Inhibition of PAO1 biofilm formation (surface attached) ([3]; listed as 8: DβG): poor anti-biofilm activity; Anti-biofilm activity (biofilm inhibition) ([3]; listed as DOG (8)): did not show significant inhibition of PAO1 biofilm
CCCCCCCCCCCCO[C@@H]1O[C@H](CO)[C@@H](O[C@H]2O[C@H](CO)[C@@H](O)[C@H](O)[C@H]2O)[C@H](O)[C@H]1O [DβM (1), dodecyl-β-maltoside] | strong reactivation of the swarming motility in rhlA mutant | causing significant amount of tendril formation | induced tendril formation in the swarming pattern of PAO1 | – | Swarming motility of rhlA mutant ([1]; 24 h, listed as DβM): long, straight and well-defined tendrils; Swarming reactivation of rhlA mutant ([1]; 110 μM in soft agar, 24 h): fully restored the swarming of rhlA; Swarming of wild type PAO1 ([2]; 110 μM in soft agar, 24 h): did not significantly affect the swarm pattern; Inhibition of PAO1 biofilm formation (surface attached) ([3]; listed as 1: DβM): 50%
CCCCCCCCCCCCCO[C@@H]1O[C@H](CO)[C@@H](O[C@@H]2O[C@H](CO)[C@@H](O)[C@H](O)[C@H]2O)[C@H](O)[C@H]1O [TβC (5), tridecyl-β-cellobioside] | no apparent reactivation of rhlA swarming | causing significant amount of tendril formation | induced tendril formation in the swarming pattern of PAO1 | did not show significant inhibition of PAO1 biofilm | Concentration of first inhibition of rhlA swarming [1]: around 50 μM; Concentration of another activation of rhlA swarming ([1]; after first inhibition): about 160 μM; Reactivation of swarming motility of rhlA mutant [1]: activated the swarming motility of rhlA mutant; Concentration of activity reversal for swarming promotion of rhlA mutant (transition concentration) [1]: ~40 µM; Concentration of activity reversal for swarming promotion of rhlA mutant (transition concentration) ([1]; listed as 5): 40 µM; Concentration at which tendrils were induced in PAO1 [2]: 30 µM; Concentration of activity reversal for swarming inhibition of PAO1 (transition concentration) [2]: ~20 to 30 µM
C=CCCCCCCCCCO[C@@H]1O[C@H](CO)[C@@H](O[C@@H]2O[C@H](CO)[C@@H](O)[C@H](O)[C@H]2O)[C@H](O)[C@H]1O [UDβC (10), undecylenyl-β-cellobioside] | no significant effect on the swarming motility | no significant effect on the swarming motility | no apparent effect on PAO1 swarming | did not show anti-biofilm activities | Inhibition of PAO1 biofilm formation (surface attached) ([3]; listed as 10: UDβC): lesser potency than DSH with completely saturated aliphatic chain
CCCCCCCCCCCO[C@@H]1O[C@H](CO)[C@@H](O[C@@H]2O[C@H](CO)[C@@H](O)[C@H](O)[C@H]2O)[C@H](O)[C@H]1O [UβC (3), undecyl-β-cellobioside] | strong reactivation of the swarming motility in rhlA mutant | causing significant amount of tendril formation | induced tendril formation in the swarming pattern of PAO1 | did not show significant inhibition of PAO1 biofilm | Reactivation of swarming motility of rhlA mutant [1]: activated the swarming motility of rhlA mutant
CCCCCCCCCCCO[C@@H]1O[C@H](CO)[C@@H](O[C@H]2O[C@H](CO)[C@@H](O)[C@H](O)[C@H]2O)[C@H](O)[C@H]1O [UβM, undecyl β-maltoside] | swarming motility with without well-defined tendrils | – | – | – | –
adamantane dodecyl β-maltoside [ADβM] | long, straight and well-defined tendrils | – | – | – | –

From patent publication US11357786B2, “Synthetic disugar hydrocarbons as natural analogs to control microbial behaviors” (Syracuse University, priority 2014, dated 2022)
